Measured values published in patent US20190211072A1, “TRI-AGONIST FOR THE GLu, GLP-1 AND NPY2 RECEPTORS” (Syracuse University, priority 2018, published 2019).

Legend:
human NPY2R = molecular target: T1, human NPY2R (Homo sapiens, UniProt P49146); experiment: cAMP-lowering action in HEK293-H188-C24 cells transfected with NPY2R (adenosine or forskolin pre-stimulation); type: cell-based; conditions: BIIE0246 2 μM; adenosine 2 μM
T1 construct: expressed in transfected cells; host or cells: HEK293-H188-C24 cells
T1 sequence (P49146 1-381): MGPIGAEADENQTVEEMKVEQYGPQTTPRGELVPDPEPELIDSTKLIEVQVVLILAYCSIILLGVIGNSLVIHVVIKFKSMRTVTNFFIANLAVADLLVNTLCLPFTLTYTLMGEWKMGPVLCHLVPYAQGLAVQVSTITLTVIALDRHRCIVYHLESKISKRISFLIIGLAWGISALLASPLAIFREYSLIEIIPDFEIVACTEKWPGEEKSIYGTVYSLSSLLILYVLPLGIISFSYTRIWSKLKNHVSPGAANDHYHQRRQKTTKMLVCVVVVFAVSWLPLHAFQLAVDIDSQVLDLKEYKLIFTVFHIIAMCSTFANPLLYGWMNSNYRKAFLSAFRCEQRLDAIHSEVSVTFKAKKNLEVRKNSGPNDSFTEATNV

GluR = GluR (UniProt P30082); experiment: LY2409021 block of GGP817 action in HEK293-GluR cells transduced with H188; type: cell-based; conditions: read-out: IC50, block of GGP817 agonist action at the GluR, GGP817 300 nM
Description: (§1) It is increasingly evident that hybrid peptides have the capacity to stimulate multiple GPCRs that participate in metabolic homeostasis.
(§2) This was established by monitoring its ability to stimulate a 60% maximal ΔFRET in the cAMP assay.

GLP-1R = molecular target: T2, GLP-1R (Homo sapiens, UniProt P43220); experiment: LY2409021 block of GGP817 action in HEK293-GLP-1R cells transduced with H188; type: cell-based
T2 construct: expressed in transfected cells; host or cells: HEK293-GLP-1R cells transduced with the H188 cAMP FRET reporter
T2 sequence (P43220 24-463, species assumed): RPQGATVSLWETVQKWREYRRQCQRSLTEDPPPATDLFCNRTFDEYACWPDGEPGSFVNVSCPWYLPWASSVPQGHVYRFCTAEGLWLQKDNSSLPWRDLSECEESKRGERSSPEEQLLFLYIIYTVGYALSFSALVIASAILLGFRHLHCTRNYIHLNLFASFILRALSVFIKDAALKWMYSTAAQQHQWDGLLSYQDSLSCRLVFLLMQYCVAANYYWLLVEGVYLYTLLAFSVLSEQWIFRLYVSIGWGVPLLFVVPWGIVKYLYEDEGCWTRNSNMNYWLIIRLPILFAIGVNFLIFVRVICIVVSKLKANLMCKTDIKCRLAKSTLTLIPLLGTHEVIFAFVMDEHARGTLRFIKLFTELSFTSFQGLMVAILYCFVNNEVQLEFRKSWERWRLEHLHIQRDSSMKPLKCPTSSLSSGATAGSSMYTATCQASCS
Description: as §1, §2

[1] = molecular target: T3, human neuropeptide Y2 receptor (NPY2R) (human, UniProt P49146); experiment: cell-based or functional assay
T3 sequence: T1 sequence (P49146 1-381)

Molecule: N=C(N)NCCC[C@H](NC(=O)CC1(CC(=O)N2CCN(C3c4ccccc4NC(=O)c4ccccc43)CC2)CCCC1)C(=O)NCCn1c(=O)n(-c2ccccc2)n(-c2ccccc2)c1=O (stereo partly shown) [BIIE0246]
- effect of antagonist on the cAMP-lowering action of GGP817 (human NPY2R): blocked

Molecule: Cc1cc(O[C@@H](CCC(F)(F)F)c2ccc(C(=O)NCCC(=O)O)cc2)cc(C)c1-c1ccc(C(C)(C)C)cc1 [LY2409021]
- IC50 (GluR): 908 nM
- IC50 (GLP-1R): 1600 nM

Molecule: HSQGTFTSDYSKYLDSRRAQDFVQWLMNTRHYLNLVTRQRY (C-terminal amide (-NH2)) [GGP817]
- EC50 of NPY2 receptor agonism (H188 FRET) [1]: ~3 µM
